Data taken from patent publication US9814732B2, “Ulipristal acetate for prevention and treatment of breast tumors” (LABORATOIRE HRA-PHARMA, priority 2012, dated 2017).

Columns and labels:
[1] = system: hPR-A and hPR-B; assay: MMTV-Luc reporter gene transactivation in HBE cells transfected with hPR-A and/or hPR-B; type: cell-based, human
Procedure: (§1) T-47D and MCF-7 cell lines were respectively maintained in RPMI 1640 and in DMEM medium supplemented with 10% fetal calf serum (PAA Laboratory, Les Mureaux, France). […] Normal human breast epithelial cell (HBE) primary cultures were obtained from 20 women (aged 17-50 years). […] HBE cells were maintained in HAM F10 medium (PAA Laboratory, Les Mureaux, France) containing hydrocortisone (5 ng/ml), Triiodo-L-thyronine (6.5 ng/ml), choleratoxin (10 ng/ml), transferrin (5 mg/ml), insulin (0.016 U/ml), epidermal growth factor (10 ng/ml) (Sigma, St Quentin Fallavier, France) and 5% human serum (Etablissement Français du Sang).
(§2) After seeding, cells were cultured for 24 h in serum and phenol red free medium. Then treatments were carried out in a phenol red free medium containing 5% dextran-charcoal stripped serum. […] Control cells were treated with ethanol, at 10 1:1000 final ethanol concentration alone as vehicle or E2 (10 nM).
(§3) Cells were transfected with reporter gene plasmids containing glucocorticoid and progesterone responsive elements (GRE/PRE): 1) the MMTV-Luc is a Mouse Mammary Tumor Virus Long Terminal Repeat promoter containing one GRE/PRE palindrome and three GRE/PRE hemi-palindromes upstream to firefly luciferase gene in pFC31 vector, 2) the GRELuc contains six copies of GRE/PRE palindrome upstream to firefly luciferase gene in pBL vector. When indicated, HBE cells were transfected with human PR isoforms hPR-A and hPR-B expression plasmids constructed in POP3 vectors. Rous Sarcoma Virus promoter upstream to beta galactosidase gene (pRSV-β-Gal) was transfected in each experiment as control. Transfections were performed according to the manufacturer instructions using Lipofectamine or Lipofectamine LTX Reagents (Invitrogen, Cergy-Pontoise, France) for breast cancer cell lines or HBE cells, respectively. After 24 h of transfection, breast cancer and HBE cells were treated with hormones for 24 h or 48 h, respectively. At the end of the experiment, cells were lysed and luciferase activity was determined using the Luciferase Assay System (Promega, Charbonnières-les-bains, France). Beta galactosidase activity was assessed using the Galacto Star kit (Applied Biosystems, Courtaboeuf, France) to normalize luciferase activity data.

[2] = system: PR target genes (FASN, cyclin A, BCL2, ALPL); assay: qRT-PCR mRNA expression of PR target genes in T-47D cells; type: cell-based, human
Procedure: After seeding, cells were cultured for 24 h in serum and phenol red free medium. Then treatments were carried out in a phenol red free medium containing 5% dextran-charcoal stripped serum. Cells were treated with P or DEX (100 nM), alone or in combination with UPA, RU (1 nM to 1 μM) or CDB-3877 (100 nM). Control cells were treated with ethanol, at […] 1:1000 final ethanol concentration alone as vehicle or E2 (10 nM).
Total RNA was extracted using TriZOL Reagent (Invitrogen, Cergy-Pontoise, France).
2 μg of total RNA was subjected to reverse transcription (RT) using random primers for 1 h at 37° C. 2 μl of RT product was diluted (1:10) and subjected to quantitative PCR using sequence specific primers (300 nM) and Brillant SYBR GREEN QPCR master mix (Fermentas, Saint-Rémy-lès-Chevreuse, France) on an Mx3000P apparatus (Agilent Technologies, Massy, France). Conditions were 1 cycle at 95° C. for 10 min followed by 40 cycles at 95° C. for 30 sec, 60° C. for 1 min and 72° C. for 30 sec. Gene expression values were normalized to the housekeeping gene 36B4. Time of steroid treatment was chosen to get the optimal stimulation for a given gene. ALPL and G0S8 mRNA were analyzed after 6 h of treatment. IEX-1, FASN, and BCL2 were analyzed after 24 h of treatment. Cyclin A mRNA was analyzed after 24 h for GR responses or 48 h for PR responses.

[3] = Hormone concentrations in serum of pellet-treated athymic mice; type: in vivo; settings: female, NMRI nu/nu athymic, mouse, other: steroid pellets grafted onto the neck, 20 mg pellet (P from day 14, UPA from day 1), day 28, read-out: concentration in mice serum (mean±SEM)
Procedure: Four weeks old ovariectomized female NMRInu/nu 20 athymic mice were purchased from Janvier laboratory (Le Genest Saint Isle, France). Breast tissues samples were obtained from 6 women (aged 29-42 years). Human mammary gland tissue was cut into 2×2×2 mm fragments and 4 fragments were then subcutaneously xenografted onto the back of 4 mice per group. Four treatment groups were performed: control, E2, E2+P and E2+P+UPA. Treatments were administered by grafting steroid pellets onto the neck of each mouse. The experimental conditions were initially determined by using a dose range of hormones mixed with cholesterol into the pellets. Blood sample assays were performed after 2 weeks and 4 weeks of treatment to measure plasmatic hormonal concentrations. Finally, the dose of 0.3 mg for E2 and 20 mg for P and UPA were used, as it provides the expected blood concentrations. For the control groups, pellets containing only cholesterol were used. To reproduce menstrual cycle conditions, mice were grafted on the first day of experiment with cholesterol, E2 and/or UPA containing pellets and on the fourteen day with cholesterol or progesterone containing pellets in control and E2 groups, or in E+P and E2+P+UPA groups, respectively. Twenty eight days after the start of experiment, mice were sacrificed. Blood was collected for each mouse, and serum was frozen at −20° C. until hormone concentrations
Estradiol was measured by radioimmunoassay using Clinical Assays Estradiol-2 (Sorin Biomedica Diagnostics SpA, Saluggia, Italia). Progesterone levels were evaluated by UPLC-MSMS using Acquity UPLC and Quattro Premier XE (Waters, Milford Mass., USA).
UPA concentrations were measured using LC-MS/MS technique by MPI Research (State College, Pa., USA).

[4] = Tolerability and body weight in HBCx-34 tumor-bearing nude mice; type: in vivo; settings: UPA 130 mg/kg p.o., 42 days
Procedure: Mice were allocated to different groups according to their tumor volume to give homogenous mean and median tumor volume in each treatment arms. Ten mice/group, with HBCx-34 tumors between 75 and 144 mm^3, were randomized according to their tumor volume into experimental groups, and treatments (UPA 130 mg/kg, p.o. or control vehicle) were initiated 33 days post implantation of the tumor for a total duration of 42 days.
Animals were weighted biweekly during all the experimental period. Toxicity of the different treatments was determined as body weight loss.

[5] = biological target: T1, PR (Homo sapiens, UniProt P06401); assay: MMTV-Luc reporter gene transactivation in T-47D cells; type: cell-based; design: constitutively expressed high amounts of PR (progesterone receptor); endogenous in cells; host or cells: T-47D
T1 sequence (P06401 1-933): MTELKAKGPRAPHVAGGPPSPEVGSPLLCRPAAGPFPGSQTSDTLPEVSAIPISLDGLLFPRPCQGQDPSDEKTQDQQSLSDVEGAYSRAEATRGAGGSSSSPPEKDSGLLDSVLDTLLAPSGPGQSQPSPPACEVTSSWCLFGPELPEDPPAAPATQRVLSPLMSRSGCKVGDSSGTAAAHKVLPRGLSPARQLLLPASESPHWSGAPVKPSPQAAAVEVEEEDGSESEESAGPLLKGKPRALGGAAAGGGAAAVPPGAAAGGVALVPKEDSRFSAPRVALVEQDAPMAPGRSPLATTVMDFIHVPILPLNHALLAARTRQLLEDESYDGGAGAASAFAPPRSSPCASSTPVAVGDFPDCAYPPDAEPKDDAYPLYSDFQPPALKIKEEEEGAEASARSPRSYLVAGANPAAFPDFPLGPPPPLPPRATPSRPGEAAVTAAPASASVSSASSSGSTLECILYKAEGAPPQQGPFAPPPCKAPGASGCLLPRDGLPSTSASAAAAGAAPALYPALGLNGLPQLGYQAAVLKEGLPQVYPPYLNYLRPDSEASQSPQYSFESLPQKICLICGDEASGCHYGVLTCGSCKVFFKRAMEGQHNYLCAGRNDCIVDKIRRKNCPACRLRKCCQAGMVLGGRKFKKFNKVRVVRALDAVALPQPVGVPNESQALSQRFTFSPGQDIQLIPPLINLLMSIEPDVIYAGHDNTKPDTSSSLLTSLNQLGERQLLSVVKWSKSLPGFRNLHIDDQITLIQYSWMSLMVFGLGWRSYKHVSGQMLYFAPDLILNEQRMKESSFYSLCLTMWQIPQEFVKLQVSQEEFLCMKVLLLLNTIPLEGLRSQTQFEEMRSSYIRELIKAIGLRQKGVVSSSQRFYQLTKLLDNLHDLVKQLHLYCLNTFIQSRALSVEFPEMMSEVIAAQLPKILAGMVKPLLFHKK
Procedure: as §1, §2, §3

## CC(=O)O[C@]1(C(C)=O)CCC2C3CCC4=CC(=O)CCC4=C3[C@@H](c3ccc(N(C)C)cc3)C[C@@]21C (stereo partly shown) [UPA, 17[…]-acetoxy-11[…]-[4-N,N-dimethylamino-phenyl)-19-norpregna-4,9-diene-3,20-dione]
[1]; HBE cells co-transfected with hPR-A and hPR-B, P 100 nM, antagonist 1 to 1000 nM
  inhibition of P induced MMTV-Luc transactivation: inhibited P induced MMTV11 Luc transactivation in a dose dependent manner from 1 000 to 10 nM
[1]; HBE cells transfected with only hPR-A or hPR-B
  antagonist performance between PR isoforms (MMTV-Luc): No difference with increasing the levels of each PR isoform was seen on UPA antagonist performance
[1]; HBE cells, MMTV-Luc, P 100 nM
  lowest concentration necessary to exert a complete antagonist activity: A hundred
[1]; HBE cells, compound alone
  progestational agonist properties on reporter gene transcription: did not exhibit progestational agonist properties
[2]; P and/or UPA 100 nM, 6 h
  ALPL mRNA expression: totally inhibited the strong P mediated induction of ALPL transcript
[2]; P and/or UPA 100 nM, 24 h
  FASN mRNA expression: able to prevent P induction of FASN mRNA expression
[2]; P and/or UPA 100 nM, 24 h, p<0.01
  BCL2 mRNA expression (PR response): antagonized the P inhibitory effect on this transcript
[2]; P and/or UPA 100 nM, 48 h
  cyclin A mRNA expression (PR response): reversed P-induced cyclin A mRNA down-regulation
[2]; UPA 100 nM alone
  PR agonist activity on PR target genes: did not display any PR agonist activity
[3]
  concentration at 28 days: 0.0635 ± 0.0105 µg/mL
[4]
  body weight loss: no significant body weight loss
  tolerability of treatment: well tolerated
  treatment related clinical observation: No treatment related clinical observation
[5]; P 100 nM, antagonist 1 nM
  PR antagonist response on MMTV-Luc transactivation at 1 nM: Partial antagonist responses
[5]; P 100 nM, antagonist 1000 to 10 nM
  PR antagonist action on MMTV-Luc transactivation: potent PR antagonist actions from 1000 to 10 nM
[5]; compound alone
  progestational agonist properties on reporter gene transcription: did not exhibit progestational agonist properties
